Values joined by “and” are separate entries in the source; they are usually repeats but may differ in a detail not shown here. Identical values can stand only once. Like-named read-outs stand apart in the source and are kept apart here.
Tests used:
[1] = target: T1, E. coli flavohemoglobin (NOD) (Escherichia coli, UniProt P24232)
From the text: (§1) The specific activities of the E. coli, A. eutrophus and S. cerevisiae NOD were 185, 90 and 105 NO heme^−1 s^−1, respectively.

flavohemoglobins (NOD) = test: CO inhibition of flavohemoglobin NOD activities; assay type: biochemical; conditions: read-out: Ki, competitive inhibition of NOD activities with respect to O2
[2] = test system: microsomal NO metabolism (Caco-2 microsomes); conditions: for IC50: read-out: IC50, microsomal NO metabolism
Description: NO metabolism by cell fractions was assayed in 100 mM Na-Hepes, pH 7.8, 0.25 M sucrose, 1 mM EDTA and 1 mM EGTA (Sucrose Buffer) containing 15 μM Cu,ZnSOD and 100 μM NADPH. Cell fractions were added with a 50 μl Hamilton syringe to give a total of 100-750 μg protein. For determination of O2 dependence of microsomal NO metabolism, the 2 ml reaction was sparged with N2 for 10 minutes to remove O2, and O2 was depleted from microsomal membranes by stirring membranes under a stream of N2 in a rubber septum-sealed tube on ice. Alternatively, residual O2 was removed by incubating the reaction mix with 16 units glucose oxidase, 1 mM glucose and 260 units catalase for 5 minutes prior to adding NO and microsomes. O2 was added from O2 saturated buffer to achieve various O2 concentrations.
Data represent the average of two or more two independent trials.
NO consumption by Caco-2 microsomes was assayed as previously described.

flavohemoglobins = test: CO binding to ferrous hemes of flavohemoglobins; conditions: read-out: dissociation equilibrium constants, ferrous hemes of flavohemoglobins
Caco-2 cells [3] = test: NO consumption (NO metabolism) by Caco-2 cells; conditions: for % Activity, Caco-2: agent 100 μM, 15 min incubation, 100% = 25.4±1.4 nmol NO per minute per 107 cells
Description: (§2) Initial rates of NO consumption were measured at 1 μM NO unless otherwise stated, and all rates were corrected for background rates of NO decomposition. A milliunit of activity is defined as the amount metabolizing 1 nanomol NO per min. […] Rotenone (0.5 μM) was included in CO inhibition assays to block respiration and O2 depletion. […] Cell permeabilization was monitored by the loss of NO metabolic activity.
(§3) Error bars represent the SD of three independent trials.
(§4) In addition to cyanide and CO, heme-binding imidazoles, a panel of substrate-inhibitors of cytochrome P450s, inhibitors of the NO-binding heme oxygenases, and free radical scavengers were surveyed for effects on NO metabolism by Caco-2 and A549 cells. All agents were used at concentrations showing minimal cytotoxicity as defined by <5% decrease in trypan blue exclusion following 15 min exposure (data not shown). Caco-2 and A549 cells were grown, harvested and assayed for NO consumption activity following a 15 min incubation in 2 ml DPBS containing 5 mM glucose and 100 μg/ml cycloheximide with the indicated agent as previously described. Data represent the mean ±SD of three independent exposures.

A549 cells = test: NO consumption (NO metabolism) by A549 cells; assay type: cell-based, human; conditions: for Inhibition of NO metabolic activity, A549: porphyrin 100 μM; for activity at 20 µM: agent 20 μM
From the text: . The results are show in Table II.

[4] = target: T2, NADPH-cytochrome P450 oxidoreductase (CYPOR) (Homo sapiens, UniProt P16435); test: CYPOR (cytochrome c reductase) activity
T2 sequence (P16435 1-677): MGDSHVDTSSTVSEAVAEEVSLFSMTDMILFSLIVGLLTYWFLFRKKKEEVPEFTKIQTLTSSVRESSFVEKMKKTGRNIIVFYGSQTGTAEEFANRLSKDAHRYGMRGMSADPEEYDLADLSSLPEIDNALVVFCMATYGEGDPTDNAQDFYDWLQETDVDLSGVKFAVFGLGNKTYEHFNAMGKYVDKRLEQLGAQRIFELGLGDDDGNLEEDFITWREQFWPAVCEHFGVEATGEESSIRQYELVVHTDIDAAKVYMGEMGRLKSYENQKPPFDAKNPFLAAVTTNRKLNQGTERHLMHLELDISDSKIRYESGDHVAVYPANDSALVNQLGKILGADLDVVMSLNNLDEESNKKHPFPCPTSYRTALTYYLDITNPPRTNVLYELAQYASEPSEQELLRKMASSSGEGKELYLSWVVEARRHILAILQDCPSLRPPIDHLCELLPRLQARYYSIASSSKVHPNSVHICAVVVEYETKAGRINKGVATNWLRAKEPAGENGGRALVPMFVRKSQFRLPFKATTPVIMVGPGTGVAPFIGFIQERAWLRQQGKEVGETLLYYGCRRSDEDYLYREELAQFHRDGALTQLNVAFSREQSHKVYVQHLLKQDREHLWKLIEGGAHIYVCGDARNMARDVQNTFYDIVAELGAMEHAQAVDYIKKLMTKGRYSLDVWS
Description: The incubations contained 120 μl of Sucrose Buffer and 30 μl of PBS (8.1 mM Na2HPO4, 1.1 mM KH2PO4, 138 mM NaCl and 2.7 mM KCl, pH 7.4) introduced with IgG or BSA.

[5] = target: T1, E. coli flavohemoglobin (NOD); test: biochemical
From the text: as §1

Caco-2 cells [6] = test system: Caco-2 cells
Description: as §2, §3, §4

[7] = target: T3, A. eutrophus flavohemoglobin (Cupriavidus necator, UniProt P39662); test: biochemical; conditions: Apparent Ki
From the text: as §1

[8] = target: T3, A. eutrophus flavohemoglobin
From the text: as §1

[9] = target: S. cerevisiae flavohemoglobin (Saccharomyces cerevisiae, UniProt P39676); test: biochemical
From the text: as §1

S. cerevisiae = test: NO consumption (NOD) activity within S. cerevisiae; assay type: cell-based, Saccharomyces cerevisiae; conditions: 0 μM to about 20 μM miconazole
From the text: Error bars represent the standard deviation of the average of three independent trials.

[10] = test system: S. cerevisiae parental strain BY4742; test: Growth of S. cerevisiae under NO atmosphere; assay type: cell-based, Saccharomyces cerevisiae; conditions: 5 μM miconazole, 960 ppm NO, 21% O2
Description: At the time indicated by the arrow, cultures were exposed to an atmosphere containing 960 ppm NO (<2 μM NO in solution) in a 21% O2/N2 balance (lines 2 and 4) or were maintained under an atmosphere of 21% O2 balanced with N2 (lines 1 and 3).
At the time indicated by the arrow, cultures were either maintained fewer than 21% O2 balanced with N2 (lines 1 and 3) or were exposed to 960 ppm NO in the 21% O2/N2-balanced atmosphere (lines 2 and 4). Cultures were grown and exposed to gases.

heme oxygenase = conditions: cited from earlier work
[11] = Homo sapiens, A549, 0.25 h, 15 min incubation

T3 sequence (P39662 whole entry): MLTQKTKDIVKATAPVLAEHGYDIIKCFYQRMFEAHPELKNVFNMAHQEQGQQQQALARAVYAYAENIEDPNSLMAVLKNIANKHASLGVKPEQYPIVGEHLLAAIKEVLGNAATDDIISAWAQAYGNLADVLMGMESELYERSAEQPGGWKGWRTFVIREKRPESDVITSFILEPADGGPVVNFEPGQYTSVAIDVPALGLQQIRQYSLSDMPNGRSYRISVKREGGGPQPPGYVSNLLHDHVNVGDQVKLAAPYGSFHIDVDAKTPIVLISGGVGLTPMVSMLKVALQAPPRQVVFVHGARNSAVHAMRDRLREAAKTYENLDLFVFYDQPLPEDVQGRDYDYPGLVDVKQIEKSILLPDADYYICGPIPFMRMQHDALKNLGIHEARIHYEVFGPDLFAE
T1 sequence (P24232 whole entry): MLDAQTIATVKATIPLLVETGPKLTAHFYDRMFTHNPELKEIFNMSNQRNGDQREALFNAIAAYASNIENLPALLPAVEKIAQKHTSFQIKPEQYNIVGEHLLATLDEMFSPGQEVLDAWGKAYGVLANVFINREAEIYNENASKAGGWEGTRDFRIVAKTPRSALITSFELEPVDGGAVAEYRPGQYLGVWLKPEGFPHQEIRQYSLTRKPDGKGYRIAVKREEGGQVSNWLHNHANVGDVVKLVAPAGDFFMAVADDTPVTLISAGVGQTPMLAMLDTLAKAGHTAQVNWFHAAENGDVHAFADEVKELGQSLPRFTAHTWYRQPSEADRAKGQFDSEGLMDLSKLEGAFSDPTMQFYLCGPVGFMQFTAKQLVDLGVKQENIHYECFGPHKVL
S. cerevisiae flavohemoglobin, sequence (P39676 whole entry): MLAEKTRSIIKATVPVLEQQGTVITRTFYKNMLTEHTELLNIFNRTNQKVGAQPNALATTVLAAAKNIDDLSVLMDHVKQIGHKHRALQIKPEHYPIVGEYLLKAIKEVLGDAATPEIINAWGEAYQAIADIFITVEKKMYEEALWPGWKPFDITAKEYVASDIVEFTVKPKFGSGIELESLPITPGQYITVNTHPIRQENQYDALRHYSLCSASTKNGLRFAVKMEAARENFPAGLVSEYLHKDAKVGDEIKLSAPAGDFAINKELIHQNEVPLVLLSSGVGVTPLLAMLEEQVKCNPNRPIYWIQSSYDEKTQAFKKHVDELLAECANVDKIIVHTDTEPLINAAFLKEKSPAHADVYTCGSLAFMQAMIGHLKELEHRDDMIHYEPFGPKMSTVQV

## C=CCS[S+]([O-])CC=C (stereo not drawn) [Allicin, diallyl thiosulfinate]
[1]
  Effect on isolated E. coli NOD: inactivates the isolated E. coli NOD

## [C-]#[O+] [CO, carbon monoxide]
Flavohemoglobins (NOD)
  Ki: ~1 µM
[2]; 10 μM CO, 20 μM O2, 1 μM NO
  Inhibition of microsomal NO consumption: > 50%
[2]; CO:O2 ratio 0.75
  Inhibition of NO metabolism by CO, microsomes: about 75%
flavohemoglobins
  Kd: < 0.7 µM
Caco-2 cells [3]; CO:O2 ratio 0.4
  Inhibition of NO metabolism by CO, cells: about 75%
Caco-2 cells [3]; read-out: Ki(CO), competitive inhibition of cellular NO metabolism, 5 μM CO, 12.5 μM O2, competitive with O2
  Ki: ~3 µM and 3 µM

## c1ccc2c(c1)[I+]c1ccccc1-2 [DPI, Diphenyleneiodonium]
[2]
  Loss of microsomal NO metabolic activity: Seventy-five percent

## COC(=O)[C@@H](N)CCCNC(=N)N[N+](=O)[O-] [L-NAME, N ω-nitro-L-arginine methyl ester]
A549 cells; Homo sapiens, A549, 0.25 h, agent 1 mM, 15 min incubation
  activity at 1000 µM: 101 ± 2.9%
[2]; inhibitor 1 mM
  % Activity, microsomal NO metabolism: 96.7 ± 6.0%

## C=CC1=C(C)c2cc3[n-]c(cc4[n-]c(cc5nc(cc1n2)C(C)=C5C=C)c(C)c4CCC(=O)O)c(CCC(=O)O)c3C.[Zn+2] [Zn2+-protoporphyrin, Zn(II)-protoporphyrin IX]
A549 cells
  Inhibition of NO metabolic activity, A549: about 40%
[2]
  Effect of porphyrins on microsomal NO metabolism: inhibited microsomal NO metabolism
[4]
  Effect on cytochrome c reduction by microsomal membranes and purified CYPOR: progressive inhibition of cytochrome c reduction

## C=CCSCC=C [diallyl sulfide]
Caco-2 cells [3]
  % Activity, Caco-2: 98.1 ± 1.7%

## Clc1ccc(COC(Cn2ccnc2)c2ccc(Cl)cc2Cl)cc1 (stereo not drawn) [econazole]
A549 cells; [11]
  activity at 20 µM: 36.2 ± 4.9%
[2]; 100 µM
  % Activity, microsomal NO metabolism: 15.3 ± 0.0%
[2]; Caco-2 microsomes
  IC50: 10 µM

## Cc1nc2c([nH]1)c(=O)n(C)c(=O)n2Cc1ccco1 [furafylline]
A549 cells; Homo sapiens, A549, 0.25 h, agent 10 μM, 15 min incubation
  activity at 10 µM: 98.2 ± 3.1%

## CC(=O)N1CCN(c2ccc(OCC3COC(Cn4ccnc4)(c4ccc(Cl)cc4Cl)O3)cc2)CC1 (stereo not drawn) [ketoconazole]
[5]
  Ki: 5 µM
[2]; 100 µM
  % Activity, microsomal NO metabolism: 25.9 ± 2.6%
[2]
  IC50: 10 µM
Caco-2 cells [6]
  % Activity, Caco-2: 22.3 ± 4.1%
[7]; first (major) phase
  Ki: 0.7 µM
[7]; second (minor) phase
  Ki: 25 µM
[8]; belongs to the first-phase Ki
  Fraction inhibited as percentage of total activity, first (major) phase: (˜75%)
[8]; belongs to the second-phase Ki
  Fraction inhibited as percentage of total activity, second (minor) phase: (˜25%)
[9]
  Ki: > 100 µM

## Clc1ccc(COC(Cn2ccnc2)c2ccc(Cl)cc2Cl)c(Cl)c1 (stereo not drawn) [miconazole]
S. cerevisiae
  Effect on NOD activity in S. cerevisiae: inhibition of NOD activity
A549 cells; [11]
  activity at 20 µM: 38.2 ± 5.9%
[2]; 100 µM
  % Activity, microsomal NO metabolism: 17.0 ± 0.0%
[2]; Caco-2 microsomes
  IC50: 20 µM
[10]
  Effect on growth of S. cerevisiae together with NO: synergistically inhibited growth of S. cerevisiae

## C=CC1=C(C)c2cc3[nH]c(cc4nc(cc5[nH]c(cc1n2)c(C)c5CCC(=O)O)C(CCC(=O)O)=C4C)c(C)c3C=C [protoporphyrin, Protoporphyrin IX]
[2]
  Effect of porphyrins on microsomal NO metabolism: inhibited NO metabolism to a significant (p<0.05), albeit lesser, extent
[4]; 20 μM, data not shown
  Effect on cytochrome c reduction by microsomal membranes and purified CYPOR: progressive inhibition of cytochrome c reduction

## O=c1c(O)c(-c2ccc(O)c(O)c2)oc2cc(O)cc(O)c12 [quercetin]
[2]; inhibitor 100 μM
  % Activity, microsomal NO metabolism: 84.1 ± 4.4%

## Nc1ccc(S(=O)(=O)Nc2ccnn2-c2ccccc2)cc1 [sulfaphenazole]
Caco-2 cells [3]
  % Activity, Caco-2: 97.1 ± 3.0%

## Cc1c(C)c2c(c(C)c1O)CC[C@@](C)(CCC[C@H](C)CCC[C@H](C)CCCC(C)C)O2 [α-tocopherol]
[2]; inhibitor 100 μM
  % Activity, microsomal NO metabolism: 106.9 ± 3.4%

## Sn(IV)-protoporphyrin IX [Sn4+-protoporphyrin]
A549 cells
  Inhibition of NO metabolic activity, A549: no effect
Heme oxygenase
  Ki: < 0.1 µM

Source: patent US20080008771A1, “Nitric Oxide Dioxygenase Inhibitors” (priority 2004, published 2008)
